Patent US12569453B2, “Use of tapinarof for the treatment of atopic dermatitis” (Dermavant Sciences GmbH, priority 2018, dated 2026)
Marks after values point to notes of the source that are not given here.

Test system: adult subjects with psoriasis
Assay: Phase II/2b clinical study in plaque psoriasis: efficacy and patient-reported outcomes
Type: in vivo, human
Details: for PGA response rate (primary endpoint): interim analysis; for subjects with ≥4 improvement in pruritus NRS score from baseline: baseline NRS score ≥4; for PGA response rate (PGA 0 or 1 and ≥2-grade improvement): mITT OC; for PGA treatment success: Week 16 (4 weeks after end of treatment)
Description: This was a multicenter (United States, Canada, and Japan), randomized, double-blind (Sponsor-unblind), vehicle-controlled, 6-arm, parallel-group, dose-finding study in adult subjects with psoriasis. Certain study personnel at each site were unblinded to dose-frequency.
The study consisted of 3 periods: up to 4 weeks Screening, 12 weeks double-blind treatment, and 4 weeks post-treatment follow-up. Study visits occurred at Screening; Baseline; weeks 1, 2, 4, 8, and 12 during the treatment period; and 2 and 4 weeks after the last application of study treatment (i.e., at weeks 14 and 16). Additional visits could occur, as needed, for early withdrawals or to follow-up on any skin reactions or ongoing AEs. A subject's total duration of study participation was approximately 16 to 20 weeks.
Two concentrations of Tapinarof cream (0.5% and 1%) and a vehicle control were evaluated following application to all psoriasis lesions (except on the scalp) once (QD) or twice daily (BID) for 12 weeks. There were no planned dose adjustments during the study.
Efficacy was assessed by using a 5-point static Physician Global Assessment (PGA) (0-4 scale), the Psoriasis Area and Severity Index (PASI), % BSA involvement, target lesion assessments (erythema, scaling, and plaque thickness), and subject-reported itch/pruritus severity using a numeric rating scale (NRS) (from the Psoriasis Symptom Diary [PSD]). Additional subject-reported outcomes included the daily PSD (which also contained severity and bother items for 3 additional symptoms). Investigator global impression of change item (assessing change in severity of psoriasis symptoms) and 2 subject global impressions of change items (assessing change in severity of psoriasis symptoms and change in severity of itch/pruritus) were also assessed.
Physician Global Assessment: The PGA is a clinical tool for assessing the current state/severity of a subject's psoriasis. It is a static 5-point morphological assessment of overall disease severity, as determined by the investigator, using the clinical characteristics of erythema, plaque thickness, and scaling as guidelines. At each specified time point, the PGA is made without reference to previous scores. Variations of the PGA are frequently used in clinical studies because it is a simple assessment that is more similar to the assessments actually used in clinical practice. Scoring system ranges from 0 (=Clear) to 4 (=Severe).
Psoriasis Area and Severity Index: The PASI scoring system is a widely-used standard clinical tool for assessing the severity of psoriasis that takes into account the overall severity of erythema (redness), thickness (induration), and scale, as well as the extent of BSA affected with psoriasis. The 3 clinical signs are each graded on a 5 point scale (0 to 4) and the % BSA affected is scored on a 7-point scale (0 to 6) for each of the 4 specified body regions (head, upper extremities, trunk, and lower extremities). The individual scores are multiplied by a weighted factor for each body region; the sum of these scores gives the overall PASI score. Higher scores indicate more severe disease. PASI is a static assessment made without reference to previous scores.
Body Surface Area: The extent of BSA affected by psoriasis is a general indicator of disease severity and was measured throughout the study. The extent of BSA to which study treatment was applied was also recorded. For the purpose of approximate clinical estimation, the total palmar surface of the palm plus 5 digits was assumed to be approximately equivalent to 1% BSA.
Target Lesion Grading: A single target lesion was selected at Baseline to assess efficacy in treating a discrete area rather than an overall average of all areas. For that lesion, the severity of erythema, scaling, and plaque thickness was assessed by the investigator on a 5-point scale ranging from “0=none” to “4=severe”. […]

Compound: CC(C)c1c(O)cc(/C=C/c2ccccc2)cc1O [Tapinarof, 3,5-Dihydroxy-4-isopropyl-trans-stilbene]
- difference in PGA response rate, active minus vehicle (0.5% BID-vehicle BID, Week 12): 35.6%
- PGA response at Week 12 (0.5% BID, 1 to <10% BSA affected at baseline): 33%
- Target lesion Erythema, percent change from Baseline (Mean) (0.5% BID, Early WD): −25.00%
- Target lesion Plaque thickness, percent change from Baseline (Mean) (0.5% BID, Early WD): −33.33%
- Target lesion Scaling, percent change from Baseline (Mean) (0.5% BID, Early WD): −41.67%
- PGA response at Week 12 (0.5% BID, Fitzpatrick skin type I/II): 50%
- PGA response at Week 12 (0.5% BID, Fitzpatrick skin type III/IV): 60%
- PGA response at Week 12 (0.5% BID, Fitzpatrick skin type V/VI): 25%
- Target lesion Erythema, percent change from Baseline (Mean) (0.5% BID, Follow-up Week 14): −68.25%
- Target lesion Plaque thickness, percent change from Baseline (Mean) (0.5% BID, Follow-up Week 14): −67.86%
- Target lesion Scaling, percent change from Baseline (Mean) (0.5% BID, Follow-up Week 14): −68.65%
- Target lesion Erythema, percent change from Baseline (Mean) (0.5% BID, Follow-up/Week 16): −59.47%
- Target lesion Plaque thickness, percent change from Baseline (Mean) (0.5% BID, Follow-up/Week 16): −54.92%
- Target lesion Scaling, percent change from Baseline (Mean) (0.5% BID, Follow-up/Week 16): −57.95%
- Target lesion Erythema, percent change from Baseline (Mean) (0.5% BID, Week 1): −9.95%
- Target lesion Plaque thickness, percent change from Baseline (Mean) (0.5% BID, Week 1): −14.52%
- Target lesion Scaling, percent change from Baseline (Mean) (0.5% BID, Week 1): −12.37%
- Target lesion Erythema, percent change from Baseline (Mean) (0.5% BID, Week 2): −23.61%
- Target lesion Plaque thickness, percent change from Baseline (Mean) (0.5% BID, Week 2): −33.89%
- Target lesion Scaling, percent change from Baseline (Mean) (0.5% BID, Week 2): −35.00%
- Target lesion Erythema, percent change from Baseline (Mean) (0.5% BID, Week 4): −45.54%
- Target lesion Plaque thickness, percent change from Baseline (Mean) (0.5% BID, Week 4): −44.64%
- Target lesion Scaling, percent change from Baseline (Mean) (0.5% BID, Week 4): −50.89%
- Target lesion Erythema, percent change from Baseline (Mean) (0.5% BID, Week 8): −62.33%
- Target lesion Plaque thickness, percent change from Baseline (Mean) (0.5% BID, Week 8): −62.67%
- Target lesion Scaling, percent change from Baseline (Mean) (0.5% BID, Week 8): −60.00%
- PGA response rate (primary endpoint) (0.5% BID, Week 8): 36%
- Mean change in nine items of the PSD from baseline (0.5% BID, Week 12): −4.2^‡
- Mean change in total target lesion grading scores from baseline (0.5% BID, Week 12): −6.2*
- Target lesion Erythema, percent change from Baseline (Mean) (0.5% BID, Week 12): −76.52%
- Target lesion Plaque thickness, percent change from Baseline (Mean) (0.5% BID, Week 12): −71.59%
- Target lesion Scaling, percent change from Baseline (Mean) (0.5% BID, Week 12): −78.03%
- subjects with ≥4 improvement in pruritus NRS score from baseline (0.5% BID, Week 12): 56%
- PGA response rate (PGA 0 or 1 and ≥2-grade improvement) (0.5% BID, Week 12): 46%
- PASI50 response rate (0.5% BID, Week 16): 62%
- PASI75 response rate (0.5% BID, Week 16): 46%
- PASI90 response rate (0.5% BID, Week 16): 27%
- PGA treatment success (0.5% BID): 35%
- PGA response at Week 12 (0.5% BID, psoriasis duration 5 years to <10 years): 20%
- PGA response at Week 12 (0.5% BID, psoriasis duration 6 months to <5 years): 50%
- PGA response at Week 12 (0.5% BID, psoriasis duration ≥10 years): 53%
- PGA response at Week 12 (0.5% BID, ≥10% BSA affected at baseline): 75%
- difference in PGA response rate, active minus vehicle (0.5% QD-vehicle QD, Week 12): 30.7%
- PGA response at Week 12 (0.5% QD, 1 to <10% BSA affected at baseline): 35%
- Target lesion Erythema, percent change from Baseline (Mean) (0.5% QD, Early WD): 8.33%
- Target lesion Plaque thickness, percent change from Baseline (Mean) (0.5% QD, Early WD): 0.00%
- Target lesion Scaling, percent change from Baseline (Mean) (0.5% QD, Early WD): −16.67%
- PGA response at Week 12 (0.5% QD, Fitzpatrick skin type I/II): 25%
- PGA response at Week 12 (0.5% QD, Fitzpatrick skin type III/IV): 44%
- PGA response at Week 12 (0.5% QD, Fitzpatrick skin type V/VI): 25%
- Target lesion Erythema, percent change from Baseline (Mean) (0.5% QD, Follow-up Week 14): −63.77%
- Target lesion Plaque thickness, percent change from Baseline (Mean) (0.5% QD, Follow-up Week 14): −67.39%
- Target lesion Scaling, percent change from Baseline (Mean) (0.5% QD, Follow-up Week 14): −67.75%
- Target lesion Erythema, percent change from Baseline (Mean) (0.5% QD, Follow-up/Week 16): −73.96%
- Target lesion Plaque thickness, percent change from Baseline (Mean) (0.5% QD, Follow-up/Week 16): −71.53%
- Target lesion Scaling, percent change from Baseline (Mean) (0.5% QD, Follow-up/Week 16): −69.79%
- Target lesion Erythema, percent change from Baseline (Mean) (0.5% QD, Week 1): −14.25%
- Target lesion Plaque thickness, percent change from Baseline (Mean) (0.5% QD, Week 1): −10.22%
- Target lesion Scaling, percent change from Baseline (Mean) (0.5% QD, Week 1): −20.97%
- Target lesion Erythema, percent change from Baseline (Mean) (0.5% QD, Week 2): −28.13%
- Target lesion Plaque thickness, percent change from Baseline (Mean) (0.5% QD, Week 2): −26.04%
- Target lesion Scaling, percent change from Baseline (Mean) (0.5% QD, Week 2): −34.38%
- Target lesion Erythema, percent change from Baseline (Mean) (0.5% QD, Week 4): −35.48%
- Target lesion Plaque thickness, percent change from Baseline (Mean) (0.5% QD, Week 4): −42.47%
- Target lesion Scaling, percent change from Baseline (Mean) (0.5% QD, Week 4): −51.34%
- Target lesion Erythema, percent change from Baseline (Mean) (0.5% QD, Week 8): −50.81%
- Target lesion Plaque thickness, percent change from Baseline (Mean) (0.5% QD, Week 8): −60.75%
- Target lesion Scaling, percent change from Baseline (Mean) (0.5% QD, Week 8): −68.01%
- PGA response rate (primary endpoint) (0.5% QD, Week 8): 46%
- Mean change in nine items of the PSD from baseline (0.5% QD, Week 12): −4.1^†
- Mean change in total target lesion grading scores from baseline (0.5% QD, Week 12): −5.8*
- PASI90 response rate (0.5% QD, Week 12): 18%
- Target lesion Erythema, percent change from Baseline (Mean) (0.5% QD, Week 12): −65.06%
- Target lesion Plaque thickness, percent change from Baseline (Mean) (0.5% QD, Week 12): −67.31%
- Target lesion Scaling, percent change from Baseline (Mean) (0.5% QD, Week 12): −72.76%
- subjects with ≥4 improvement in pruritus NRS score from baseline (0.5% QD, Week 12): 57%
- PGA response rate (PGA 0 or 1 and ≥2-grade improvement) (0.5% QD, Week 12): 36%
- PASI50 response rate (0.5% QD, Week 16): 71%
- PASI75 response rate (0.5% QD, Week 16): 54%
- PASI90 response rate (0.5% QD, Week 16): 18%
- PGA treatment success (0.5% QD): 36%
- PGA response at Week 12 (0.5% QD, psoriasis duration 5 years to <10 years): 50%
- PGA response at Week 12 (0.5% QD, psoriasis duration 6 months to <5 years): 29%
- PGA response at Week 12 (0.5% QD, psoriasis duration ≥10 years): 33%
- PGA response at Week 12 (0.5% QD, ≥10% BSA affected at baseline): 38%
- subjects rating overall psoriasis symptoms very improved or moderately improved (0.5% groups, Week 12): 77-80%
- subjects rating pruritus symptoms very improved or moderately improved (0.5% groups, Week 12): 73-77%
- PASI75 responders who maintained response from Week 12 to Week 16 (1% BID): 80%
- PGA responders who maintained response from Week 12 to Week 16 (1% BID): 67%
- difference in PGA response rate, active minus vehicle (1% BID-vehicle BID, Week 12): 54.7%
- PGA response at Week 12 (1% BID, 1 to <10% BSA affected at baseline): 67%
